What was measured:
[1] = system: Erythema induced by UVB radiation in mouse; test: Photoprotection: erythema induced by UVB radiation in mouse skin; format: in vivo; design: key to Erythema induced by UVB radiation in mouse: presence (+); absence (-); conditions: individual animals No. 1-10; 0.5% gel topical, about 2.5 kJ/m^2 UVB, 24 hours after exposure
Description: The effect of p-nitrolophine and m-nitrolophine on erythema due to exposing the mouse skin to an irradiation source at maximum in the UVB region has been studied in these assays. The results obtained have been compared with the effect of 4-methylbenzylidene camphor (P5000) a substance considered as a UVB solar filter and with the effect of butyl methoxydibenzoylmethane (P1789) an UVA type filter, both products being commonly used in antisolar cosmetics.
35 male mice weighing more than 20 grams have been used. After receiving them, the animals were acclimated for 7 days at the place where the assays were preformed, they were being placed in a cage with controlled temperature (22°C), with relative humidity between 50% and 75%, replacing fresh filtered air approximately 10 times per hour and with 12 h light/dark cycles (7.00 - 19.00 light and from 19.00 to 7.00 dark). For this period and during the experimental period, the animals were fed ad libitum with standard diet for rodents and running water as drink.
The animals were randomly distributed into 4 experimental groups according to Table 7. The products to be tested were directly used, applying them in the form of a gel on an area of the skin such that each animal form its own control.
The test was performed following the method described by Winder et al. ["A study of Pharmacological influences on ultraviolet erythema in guinea pigs". Arch. Int Pharmacodyn, 116:261-292; 1958] and by other authors [Wendy et al. "The local antinociceptive and topical antiinflamatory effects of propyl gallate in rodents". Br. J. Pharmacol, 58:573 -581; 1976; Katiyar et al. "Protective Effects of Silymarin Against Photocarcinogenesis in a Mouse Skin Model". J Natl Cancer Inst 89:556-65; 1997] with slight modifications. The day […] the assay, as much hair as possible were removed from the animals by applying a layer of commercial hair-removing cream to remove all the trace of hair and to leave the skin of the back completely bare. The rest of the hair-removing cream were removed by means of washing and rinsing with running water and the animals were the returned to their corresponding cages where they remained until the following day.
On the day of the assay, the substances to be assayed were blindly applied on the back of the previously labelled animals following a random pattern (randomized). After applying the corresponding treatments, the animals were placed and pinned to the presentation platform of the equipment. The animals were then placed 8 cm from an ultraviolet light source of 4*40w with 313 nm of fundamental emission and a range comprised approximately between 290 and 350 nm and with an anti-UVC filter. The emission spectrum of said light source is depicted in Figure 1.
The exposure was maintained until all the animals have received an approximate total dose of 2.5 kJ/m^2. The dose of irradiation applied was determined by means of a ultraviolet light detector, the response curve of which is shown in Figure 2.
Twenty four hours after ending the exposure, the back of the animals was photographed and they were returned to their cages. The evaluation of erythema was performed by means of a positive/negative criterion, the percentage of protected animals being obtained. The statistic significance of the difference was evaluated by means of the non-parametric Fisher Test.

[2] = molecular target: T1, ERα (Homo sapiens, UniProt P03372); test: Estrogenicity reporter gene bioassay (luciferase activity) in HELN-ERα cells; format: cell-based
T1 construct: expressed in transfected cells; host or cells: HeLa (HELN-ERα)
T1 sequence (P03372 1-595): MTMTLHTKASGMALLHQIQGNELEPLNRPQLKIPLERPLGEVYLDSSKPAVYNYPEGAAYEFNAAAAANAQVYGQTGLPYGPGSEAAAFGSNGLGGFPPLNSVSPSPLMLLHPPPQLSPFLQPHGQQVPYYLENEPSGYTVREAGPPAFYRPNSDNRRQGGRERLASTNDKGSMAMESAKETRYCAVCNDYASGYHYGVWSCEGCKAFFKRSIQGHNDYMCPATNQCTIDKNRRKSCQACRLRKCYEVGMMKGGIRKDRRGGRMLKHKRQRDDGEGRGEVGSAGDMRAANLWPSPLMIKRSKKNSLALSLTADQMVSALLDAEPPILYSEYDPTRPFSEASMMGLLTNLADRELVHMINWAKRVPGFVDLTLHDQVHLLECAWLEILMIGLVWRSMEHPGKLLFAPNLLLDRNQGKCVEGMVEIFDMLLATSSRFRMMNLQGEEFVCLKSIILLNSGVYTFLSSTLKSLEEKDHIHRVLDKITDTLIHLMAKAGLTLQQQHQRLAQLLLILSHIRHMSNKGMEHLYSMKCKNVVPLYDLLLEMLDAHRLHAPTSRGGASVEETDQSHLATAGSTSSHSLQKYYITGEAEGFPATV
Description: Briefly, the transactivation bioassay (Reporter gene assay) used are based on the use of breast and uterine cancer cell lines transfected with different native or modified hormone receptors. The resulting cell lines further contain a reporter gene regulated by estrogens through the estrogen response element, the globin promoter and the luciferase gene.
HELN-ERα and HELN-ERβ cell lines were obtained by means of transfecting the HeLa uterine cancer cell line. In a first phase, said cells were transfected with an estrogen sensitive response element and then with the estrogen receptor alpha or beta (ERα or ERβ). The selection of clones resistant to geneticin and puromycin was performed using a concentration of 1 mg/mL and 0.5 mg/mL, respectively. The maintenance medium as well as the experimental medium of these 2 cell lines is DMEM F12 without phenol red supplemented with 6% of FBS (lacking of estrogens), 1% of penicillin / streptomycin, 1 mg/mL of geneticin and 0.5 µg/mL of puromycin.
The cells were seeded at a density of 5x10^4 cells per well in white opaque 96 well plates in 150 µL of experimental medium. After 8 hours, the compounds to be assayed (p-nitrolophine and estradiol) were prepared (concentrated 4x) in the same medium and were added to each well (50 µl). The cells were incubated for 16 hours at 37°C. At the end of the incubation, the medium was removed and replaced with fresh medium containing […] luciferin [at that concentration, luciferin diffuses into cell producing a luminescent signal which is stable after 5 minutes and for at least 2 hours]. The plates were then introduced in the luminometer to measure the luminescence for 2 seconds. A YicroBeta Trilux luminometer (EGG Wallac) apparatus was used to detect luciferase activity.
The assays were preformed in quadruple for each concentration (0.01-10 µM) in at least three independent experiments. […] The values of luciferase activity obtained were analyzed using the one-way ANOVA statistic test. The differences were considered significant when P was less than […] (P < 0.05).

## O=[N+]([O-])c1ccc(-c2nc(-c3ccccc3)c(-c3ccccc3)[nH]2)cc1 [p-nitrolophine, 2-(4-nitrophenyl)-4,5-diphenyl-1H-imidazole]
[1]
  Erythema induced by UVB radiation in mouse: -
[2]
  activity at 0.01 µM: 11.1 ± 0.9%
  activity at 0.03 µM: 11.7 ± 0.9%
  activity at 0.1 µM: 10.7 ± 1.1%
  activity at 0.3 µM: 11.3 ± 1.5%
  activity at 1 µM: 11.1 ± 1.1%
  activity at 3 µM: 11.2 ± 1.4%
  activity at 10 µM: 11.6 ± 1.5%
[2]; HELN-ERα line, conclusion in words
  estrogenicity: not estrogenic

Source: patent EP2444396A1, “PHOTOPROTECTIVE COMPOSITION” (Apoteknos Para La Piel, S.L., priority 2009, dated 2010)
